{"source": "ChEMBL document CHEMBL3817755", "about": "“Design, synthesis and biological evaluation of indazolepyrimidine based derivatives as anticancer agents with anti-angiogenic and antiproliferative activities” (Medchemcomm, 2016)", "format_in_all_cases": "functional", "key": {"K562": {"tested_on": "K562", "assay": "Growth inhibition of human K562 cells at 10 uM after 48 hrs by SRB assay", "settings": "K562, 48 h, read-out: GI"}, "[1]": {"assay": "Growth inhibition of human MOLT4 cells at 10 uM after 48 hrs by SRB assay", "settings": "MOLT-4, 48 h, read-out: GI"}, "[2]": {"assay": "Growth inhibition of human RPMI8226 cells at 10 uM after 48 hrs by SRB assay", "settings": "RPMI-8226, 48 h, read-out: GI"}, "A549": {"tested_on": "A549", "assay": "Growth inhibition of human A549/ATCC cells at 10 uM after 48 hrs by SRB assay", "settings": "A549, 48 h, read-out: GI"}, "EKVX": {"tested_on": "EKVX", "assay": "Growth inhibition of human EKVX cells at 10 uM after 48 hrs by SRB assay", "settings": "read-out: GI"}, "[3]": {"assay": "Growth inhibition of human HOP62 cells at 10 uM after 48 hrs by SRB assay", "settings": "HOP-62, 48 h, read-out: GI"}, "[4]": {"assay": "Growth inhibition of human HOP92 cells at 10 uM after 48 hrs by SRB assay", "settings": "HOP-92, 48 h, read-out: GI"}, "NCI-H226": {"tested_on": "NCI-H226", "assay": "Growth inhibition of human NCI-H226 cells at 10 uM after 48 hrs by SRB assay", "settings": "NCI-H226, 48 h, read-out: GI"}, "NCI-H23": {"tested_on": "NCI-H23", "assay": "Growth inhibition of human NCI-H23 cells at 10 uM after 48 hrs by SRB assay", "settings": "NCI-H23, 48 h, read-out: GI"}, "NCI-H522": {"tested_on": "NCI-H522", "assay": "Growth inhibition of human NCI-H522 cells at 10 uM after 48 hrs by SRB assay", "settings": "NCI-H522, 48 h, read-out: GI"}, "[5]": {"assay": "Growth inhibition of human COLO205 cells at 10 uM after 48 hrs by SRB assay", "settings": "COLO 205, 48 h, read-out: GI"}, "[6]": {"assay": "Growth inhibition of human HCC2998 cells at 10 uM after 48 hrs by SRB assay", "settings": "HCC 2998, 48 h, read-out: GI"}, "[7]": {"assay": "Growth inhibition of human HCT116 cells at 10 uM after 48 hrs by SRB assay", "settings": "HCT-116, 48 h, read-out: GI"}, "[8]": {"assay": "Growth inhibition of human HCT15 cells at 10 uM after 48 hrs by SRB assay", "settings": "HCT-15, 48 h, read-out: GI"}, "HT-29": {"tested_on": "HT-29", "assay": "Growth inhibition of human HT-29 cells at 10 uM after 48 hrs by SRB assay", "settings": "HT-29, 48 h, read-out: GI"}, "KM12": {"tested_on": "KM12", "assay": "Growth inhibition of human KM12 cells at 10 uM after 48 hrs by SRB assay", "settings": "KM12, 48 h, read-out: GI"}, "[9]": {"assay": "Growth inhibition of human SF268 cells at 10 uM after 48 hrs by SRB assay", "settings": "SF-268, 48 h, read-out: GI"}, "[10]": {"assay": "Growth inhibition of human SF295 cells at 10 uM after 48 hrs by SRB assay", "settings": "SF-295, 48 h, read-out: GI"}, "[11]": {"assay": "Growth inhibition of human SNB75 cells at 10 uM after 48 hrs by SRB assay", "settings": "SNB-75, 48 h, read-out: GI"}, "U-251": {"tested_on": "U-251", "assay": "Growth inhibition of human U251 cells at 10 uM after 48 hrs by SRB assay", "settings": "U-251, 48 h, read-out: GI"}, "Malme-3M": {"tested_on": "Malme-3M", "assay": "Growth inhibition of human MALME-3M cells at 10 uM after 48 hrs by SRB assay", "settings": "read-out: GI"}, "M14": {"tested_on": "M14", "assay": "Growth inhibition of human M14 cells at 10 uM after 48 hrs by SRB assay", "settings": "M14, 48 h, read-out: GI"}, "MDA-MB-435": {"tested_on": "MDA-MB-435", "assay": "Growth inhibition of human MDA-MB-435 cells at 10 uM after 48 hrs by SRB assay", "settings": "MDA-MB-435, 48 h, read-out: GI"}, "SK-MEL-28": {"tested_on": "SK-MEL-28", "assay": "Growth inhibition of human SK-MEL-28 cells at 10 uM after 48 hrs by SRB assay", "settings": "SK-MEL-28, 48 h, read-out: GI"}, "[12]": {"assay": "Growth inhibition of human UACC62 cells at 10 uM after 48 hrs by SRB assay", "settings": "UACC-62, 48 h, read-out: GI"}, "[13]": {"assay": "Growth inhibition of human OVCAR3 cells at 10 uM after 48 hrs by SRB assay", "settings": "OVCAR-3, 48 h, read-out: GI"}, "[14]": {"assay": "Growth inhibition of human OVCAR4 cells at 10 uM after 48 hrs by SRB assay", "settings": "OVCAR-4, 48 h, read-out: GI"}, "[15]": {"assay": "Growth inhibition of human OVCAR5 cells at 10 uM after 48 hrs by SRB assay", "settings": "OVCAR-5, 48 h, read-out: GI"}, "[16]": {"assay": "Growth inhibition of human OVCAR8 cells at 10 uM after 48 hrs by SRB assay", "settings": "OVCAR-8, 48 h, read-out: GI"}, "[17]": {"assay": "Growth inhibition of human SKOV3 cells at 10 uM after 48 hrs by SRB assay", "settings": "SK-OV-3, 48 h, read-out: GI"}, "786-0": {"tested_on": "786-0", "assay": "Growth inhibition of human 786-0 cells at 10 uM after 48 hrs by SRB assay", "settings": "786-0, 48 h, read-out: GI"}, "[18]": {"assay": "Growth inhibition of human RXF393 cells at 10 uM after 48 hrs by SRB assay", "settings": "RXF 393, 48 h, read-out: GI"}, "SN12C": {"tested_on": "SN12C", "assay": "Growth inhibition of human SN12C cells at 10 uM after 48 hrs by SRB assay", "settings": "read-out: GI"}, "[19]": {"assay": "Growth inhibition of human TK10 cells at 10 uM after 48 hrs by SRB assay", "settings": "TK-10, 48 h, read-out: GI"}, "[20]": {"assay": "Growth inhibition of human UO31 cells at 10 uM after 48 hrs by SRB assay", "settings": "UO-31, 48 h, read-out: GI"}, "[21]": {"assay": "Growth inhibition of human PC3 cells at 10 uM after 48 hrs by SRB assay", "settings": "PC-3, 48 h, read-out: GI"}, "MCF7": {"tested_on": "MCF7", "assay": "Growth inhibition of human MCF7 cells at 10 uM after 48 hrs by SRB assay", "settings": "MCF7, 48 h, read-out: GI"}, "MDA-MB-231": {"tested_on": "MDA-MB-231", "assay": "Growth inhibition of human MDA-MB-231 cells at 10 uM after 48 hrs by SRB assay", "settings": "MDA-MB-231, 48 h, read-out: GI"}, "[22]": {"assay": "Growth inhibition of human BT549 cells at 10 uM after 48 hrs by SRB assay", "settings": "BT-549, 48 h, read-out: GI"}, "T47D": {"tested_on": "T47D", "assay": "Growth inhibition of human T47D cells at 10 uM after 48 hrs by SRB assay", "settings": "read-out: GI"}, "MDA-MB-468": {"tested_on": "MDA-MB-468", "assay": "Growth inhibition of human MDA-MB-468 cells at 10 uM after 48 hrs by SRB assay", "settings": "MDA-MB-468, 48 h, read-out: GI"}}, "data": [{"smiles": "Fc1ccc(Nc2nccc(Nc3ccc4[nH]ncc4c3)n2)cc1", "values": [{"measurement": "inhibition of growth at 10 µM", "setting": "K562", "result": 61, "unit": "%"}, {"measurement": "inhibition of growth at 10 µM", "setting": "[1]", "result": 74, "unit": "%"}, {"measurement": "inhibition of growth at 10 µM", "setting": "[2]", "result": 59, "unit": "%"}, {"measurement": "inhibition of growth at 10 µM", "setting": "A549", "result": 43, "unit": "%"}, {"measurement": "inhibition of growth at 10 µM", "setting": "EKVX", "result": 29, "unit": "%"}, {"measurement": "inhibition of growth at 10 µM", "setting": "[3]", "result": 41, "unit": "%"}, {"measurement": "inhibition of growth at 10 µM", "setting": "[4]", "result": 81, "unit": "%"}, {"measurement": "inhibition of growth at 10 µM", "setting": "NCI-H226", "result": 53, "unit": "%"}, {"measurement": "inhibition of growth at 10 µM", "setting": "NCI-H23", "result": 27, "unit": "%"}, {"measurement": "inhibition of growth at 10 µM", "setting": "NCI-H522", "result": 57, "unit": "%"}, {"measurement": "inhibition of growth at 10 µM", "setting": "[5]", "result": 39, "unit": "%"}, {"measurement": "inhibition of growth at 10 µM", "setting": "[6]", "result": 1, "unit": "%"}, {"measurement": "inhibition of growth at 10 µM", "setting": "[7]", "result": 45, "unit": "%"}, {"measurement": "inhibition of growth at 10 µM", "setting": "[8]", "result": 38, "unit": "%"}, {"measurement": "inhibition of growth at 10 µM", "setting": "HT-29", "result": 47, "unit": "%"}, {"measurement": "inhibition of growth at 10 µM", "setting": "KM12", "result": 76, "unit": "%"}, {"measurement": "inhibition of growth at 10 µM", "setting": "[9]", "result": 29, "unit": "%"}, {"measurement": "inhibition of growth at 10 µM", "setting": "[10]", "result": 11, "unit": "%"}, {"measurement": "inhibition of growth at 10 µM", "setting": "[11]", "result": 15, "unit": "%"}, {"measurement": "inhibition of growth at 10 µM", "setting": "U-251", "result": 35, "unit": "%"}, {"measurement": "inhibition of growth at 10 µM", "setting": "Malme-3M", "result": 3, "unit": "%"}, {"measurement": "inhibition of growth at 10 µM", "setting": "M14", "result": 38, "unit": "%"}, {"measurement": "inhibition of growth at 10 µM", "setting": "MDA-MB-435", "result": 25, "unit": "%"}, {"measurement": "inhibition of growth at 10 µM", "setting": "SK-MEL-28", "result": 11, "unit": "%"}, {"measurement": "inhibition of growth at 10 µM", "setting": "[12]", "result": 29, "unit": "%"}, {"measurement": "inhibition of growth at 10 µM", "setting": "[13]", "result": 14, "unit": "%"}, {"measurement": "inhibition of growth at 10 µM", "setting": "[14]", "result": 27, "unit": "%"}, {"measurement": "inhibition of growth at 10 µM", "setting": "[15]", "result": 32, "unit": "%"}, {"measurement": "inhibition of growth at 10 µM", "setting": "[16]", "result": 59, "unit": "%"}, {"measurement": "inhibition of growth at 10 µM", "setting": "[17]", "result": 24, "unit": "%"}, {"measurement": "inhibition of growth at 10 µM", "setting": "786-0", "result": 32, "unit": "%"}, {"measurement": "inhibition of growth at 10 µM", "setting": "[18]", "result": 67, "unit": "%"}, {"measurement": "inhibition of growth at 10 µM", "setting": "SN12C", "result": 40, "unit": "%"}, {"measurement": "inhibition of growth at 10 µM", "setting": "[19]", "result": 38, "unit": "%"}, {"measurement": "inhibition of growth at 10 µM", "setting": "[20]", "result": 61, "unit": "%"}, {"measurement": "inhibition of growth at 10 µM", "setting": "[21]", "result": 54, "unit": "%"}, {"measurement": "inhibition of growth at 10 µM", "setting": "MCF7", "result": 37, "unit": "%"}, {"measurement": "inhibition of growth at 10 µM", "setting": "MDA-MB-231", "result": 21, "unit": "%"}, {"measurement": "inhibition of growth at 10 µM", "setting": "[22]", "result": 33, "unit": "%"}, {"measurement": "inhibition of growth at 10 µM", "setting": "T47D", "result": 71, "unit": "%"}, {"measurement": "inhibition of growth at 10 µM", "setting": "MDA-MB-468", "result": 53, "unit": "%"}]}]}
